In PMC3634465, “New Anti-Inflammatory Aromatic Components from Antrodia camphorata” (International Journal of Molecular Sciences, 2013):
≈ marks a conversion by molar mass, not a printed value.

What was measured:
[1] = Cell viability (MTT) in the presence of LPS; assay type: cell-based, murine; conditions: mouse, RAW264.7 macrophage cells, 100 ng/mL LPS, mean ± SD, read-out: Cell viability (% of control)
Description: (§1) A murine macrophage cell line, RAW264.7 (BCRC No. 60001), was purchased from the Bioresources Collection and Research Center (BCRC, Hsinchu, Taiwan) of the Food Industry Research and Development Institute (Hsinchu, Taiwan). Cells were cultured in plastic dishes containing Dulbecco’s Modified Eagle Medium (DMEM, Sigma, St. Louis, MO, USA) supplemented with 10% fetal bovine serum (FBS, Sigma) in a CO2 incubator (5% CO2 in air) at 37 °C and subcultured every 3 days at a dilution of 1:5 using 0.05% trypsin-0.02% EDTA in Ca^2+-, Mg^2+-free phosphate-buffered saline (DPBS).
Cells (2 × 10^5) were cultured in 96-well plate containing DMEM supplemented with 10% FBS for 1 day to become nearly confluent. Then, cells were cultured with compounds 1–5 in the presence of 100 ng/mL LPS (lipopolysaccharide) (Eschericha coli 026:B6; Sigma-Aldrich, St. Louis, Mo) for 24 h. After that, the cells were washed twice with DPBS and incubated with 100 μL of 0.5 mg/mL MTT for 2 h at 37 °C testing for cell viability. The medium was then discarded, and 100 μL dimethyl sulfoxide (DMSO) was added. After 30-min incubation, absorbance at 570 nm was read using a microplate reader (Molecular Devices, Sunnyvale, CA, USA).

[2] = system: LPS-induced NO production in RAW264.7 macrophages; experiment: LPS-induced NO production in macrophages (nitrite, Griess reaction); assay type: cell-based, murine; conditions: LPS 100 ng/mL, 24 h; for IC50: Mus musculus, RAW264.7, non-linear regression, read-out: IC50 of inhibition of LPS-induced NO production; for NO level: LPS alone 25.3 ± 3.0, control 2.5 ± 0.2
Description: as §1
NO production was indirectly assessed by measuring the nitrite levels in the cultured media and serum determined by a colorimetric method based on the Griess reaction. The cells were incubated with different concentrations of samples in the presence of LPS (100 ng/mL) at 37 °C for 24 h. Then, cells were dispensed into 96-well plates, and 100 μL of each supernatant was mixed with the same volume of Griess reagent (1% sulfanilamide, 0.1% naphthyl ethylenediamine dihydrochloride and 5% phosphoric acid) and incubated at room temperature for 10 min; the absorbance was measured at 540 nm with a Micro-Reader (Molecular Devices).
IC50 values were estimated using a non-linear regression algorithm (Sigma Plot 8.0; SPSS Inc., Chicago, IL, USA). Statistical evaluation was carried out by one-way analysis of variance (ANOVA, followed by Scheffe’s multiple range tests).

SMILES | IC50 [2] [µg/mL] | viability at 24 h, 0.312 μg/mL [1] [%] | viability at 24 h, 0.625 μg/mL [1] [%] | viability at 24 h, 1.25 μg/mL [1] [%] | viability at 24 h, 2.5 μg/mL [1] [%] | viability at 24 h, 5 μg/mL [1] [%] | NO level ([2]; dose 0.312 μg/mL) [µM] | NO level ([2]; dose 0.625 μg/mL) [µM] | NO level ([2]; dose 1.25 μg/mL) [µM] | NO level ([2]; dose 2.5 μg/mL) [µM] | viability at 24 h, 25 μg/mL [1] [%] | viability at 24 h, 50 μg/mL [1] [%] | NO level ([2]; dose 25 μg/mL) [µM] | other results
COc1c(C)cc(-c2c(O)c(C)c(OC)c3c2OCO3)c2c1OCO2 [Compound 2, 2-hydroxy-4,4′-dimethoxy-3,3′-dimethyl-5,6,5′,6′-bimethylenedioxybiphenyl] | – | 98 ± 1.5 | 96.6 ± 7.6 | 96.6 ± 2.2 | 92.7 ± 1.3 | 71.4 ± 2.2 | 16.4 ± 2.4 | 16.1 ± 1.3 | 15.7 ± 2.0 | 15.5 ± 1.9 | – | – | – | –
COc1cc(C)c(OC)c(O)c1OC [Compound 4, 2,3,6-trimethoxy-5-methylphenol] | – | 97 ± 1.1 | 96.2 ± 2.2 | 95 ± 2.1 | 94.6 ± 1.6 | 69.3 ± 2.1 | 20.6 ± 1.2 | 19.4 ± 2.0 | 18.3 ± 0.3 | 13.6 ± 0.6 | – | – | – | –
COc1c(C)cc(O)c2c1OCO2 [Compound 5, 2,3-methylenedioxy-4-methoxy-5-methylphenol] | 0.8 ± 0.3 (≈ 4.39 µM) | 93.8 ± 2.9 | 88.5 ± 1.5 | 85 ± 2.9 | 83.8 ± 1.9 | 82.4 ± 2.7 | 15.2 ± 1.4 | 12.8 ± 1.9 | 12.1 ± 1.6 | 10.4 ± 1.3 | – | – | – | NO level ([2]; dose 5 μg/mL): 10.0 ± 2.2 µM
COc1ccc2c(c1)c(CC(=O)O)c(C)n2C(=O)c1ccc(Cl)cc1 [Indomethacin, indomethacin, reference compound] | – | – | – | – | – | – | – | – | – | – | 96.2 ± 1.1 | 94.8 ± 1.3 | 19.2 ± 0.6 | NO level ([2]; dose 50 μg/mL): 14.3 ± 0.8 µM

Now from value to compound, other results behind:

IC50 [2] [µg/mL] | SMILES | viability at 24 h, 0.312 μg/mL [1] [%] | viability at 24 h, 0.625 μg/mL [1] [%] | viability at 24 h, 1.25 μg/mL [1] [%] | viability at 24 h, 2.5 μg/mL [1] [%] | viability at 24 h, 5 μg/mL [1] [%] | NO level ([2]; dose 0.312 μg/mL) [µM] | NO level ([2]; dose 0.625 μg/mL) [µM] | NO level ([2]; dose 1.25 μg/mL) [µM] | NO level ([2]; dose 2.5 μg/mL) [µM] | viability at 24 h, 25 μg/mL [1] [%] | viability at 24 h, 50 μg/mL [1] [%] | NO level ([2]; dose 25 μg/mL) [µM] | other results
1.8 ± 0.2 (≈ 8.1 µM) | C=C(C)c1c(OC)c(O)c(C)c2c1OCO2 [Compound 1, 3-isopropenyl-2-methoxy-6-methyl-4,5-methylenedioxyphenol] | 92 ± 3.3 | 91 ± 3.7 | 90.4 ± 2.4 | 87.3 ± 2.3 | 65.5 ± 1.7 | 14.5 ± 2.2 | 14.1 ± 1.5 | 13.0 ± 1.5 | 12.0 ± 1.7 | – | – | – | –
18.8 ± 0.6 (≈ 51.9 µM) | COc1c(C)c(-c2c(C)c(OC)c(O)c3c2OCO3)c2c(c1O)OCO2 [Compound 3, 4,4′-dihydroxy-3,3′-dimethoxy-2,2′-dimethyl-5,6,5′,6′-bimethylenedioxybiphenyl] | – | – | – | – | – | – | – | – | – | 91 ± 7.7 | 64.8 ± 2.2 | 12.1 ± 0.6 | viability at 24 h, 3.12 μg/mL ([1]; dose 3.12 μg/mL): 95.1 ± 2.9%; viability at 24 h, 6.25 μg/mL ([1]; dose 6.25 μg/mL): 93.1 ± 2.7%; viability at 24 h, 12.5 μg/mL ([1]; dose 12.5 μg/mL): 93 ± 2.6%; NO level ([2]; dose 3.12 μg/mL): 13.7 ± 0.1 µM; NO level ([2]; dose 6.25 μg/mL): 13.4 ± 0.4 µM; NO level ([2]; dose 12.5 μg/mL): 13.2 ± 0.1 µM
